Experimental data from ChEMBL document CHEMBL1151273, “Cytotoxic furostanol saponins and a megastigmane glucoside from tribulus parvispinus” (J Nat Prod, 2005).
Calls of active or inactive are those of the source. The calls are words filed in the database; no cut-off is given here.

What was measured:
HepG2 = experiment: Cytotoxicity against human HepG2 cells after 48 hrs by acid phosphatase method; type: functional, cell-based; conditions: HepG2, 48 h
U-937 [1] = experiment: Cytotoxicity against human U937 cells after 48 hrs by WST1 test; type: functional, cell-based; conditions: U-937, 48 h
U-937 [2] = experiment: Induction of apoptosis in human U937 cells assessed as total LDH activity at IC50 by spectrophotometric method; type: functional
U-937 [3] = experiment: Induction of apoptosis in human U937 cells assessed as hypodiploid region at IC50 measured by propidium iodide incorporation by flow cytometry; type: functional
MCF7 = experiment: Cytotoxicity against human MCF7 cells after 48 hrs by acid phosphatase method; type: functional, cell-based; conditions: MCF7, 48 h
U-937 [4] = experiment: Cytotoxicity against human U937 cells assessed as reduction of proliferation at 0.1 uM after 48 hrs; type: functional, cell-based
U-937 [5] = experiment: Cytotoxicity against human U937 cells assessed as reduction of proliferation at 0.5 uM after 24 hrs; type: functional, cell-based
U-937 [6] = experiment: Cytotoxicity against human U937 cells assessed as reduction of proliferation at 0.1 uM after 24 hrs; type: functional, cell-based

Structure (SMILES)	IC50 (HepG2) [µM]	IC50 (U-937 [1]) [µM]	Activity (U-937 [2]) [%]	Activity (U-937 [3]) [%]	IC50 (MCF7) [µM]	Activity (U-937 [4])	Activity (U-937 [5])	Activity (U-937 [6])
C[C@H](CC[C@@]1(O)O[C@H]2C[C@H]3[C@@H]4CC[C@H]5C[C@@H](O[C@@H]6O[C@H](CO)[C@H](O[C@@H]7O[C@H](CO)[C@@H](O)[C@H](O[C@@H]8OC[C@@H](O)[C@H](O)[C@H]8O)[C@H]7O[C@@H]7O[C@H](CO)[C@H](O)[C@H](O)[C@H]7O)[C@H](O)[C@H]6O)[C@H](O)C[C@]5(C)[C@H]4CC[C@]3(C)[C@H]2[C@@H]1C)CO[C@@H]1O[C@H](CO)[C@@H](O)[C@H](O)[C@H]1O [PARVISPINOSIDE A]	> 100	30	28	32	> 100			
C[C@H](CC[C@@]1(O)O[C@H]2C[C@H]3[C@@H]4CC[C@H]5C[C@@H](O[C@@H]6O[C@H](CO)[C@H](O[C@@H]7O[C@H](CO)[C@@H](O)[C@H](O[C@@H]8OC[C@@H](O)[C@H](O)[C@H]8O)[C@H]7O[C@@H]7O[C@H](CO)[C@H](O)[C@H](O)[C@H]7O)[C@H](O)[C@H]6O)CC[C@]5(C)[C@H]4CC[C@]3(C)[C@H]2[C@@H]1C)CO[C@@H]1O[C@H](CO)[C@@H](O)[C@H](O)[C@H]1O [PARVISPINOSIDE B]	> 100	0.5	27	26	94	Active	Active	
CO[C@]1(CC[C@@H](C)CO[C@@H]2O[C@H](CO)[C@@H](O)[C@H](O)[C@H]2O)O[C@H]2C[C@H]3[C@@H]4CC[C@H]5C[C@@H](O[C@@H]6O[C@H](CO)[C@H](O[C@@H]7O[C@H](CO)[C@@H](O)[C@H](O[C@@H]8OC[C@@H](O)[C@H](O)[C@H]8O)[C@H]7O[C@@H]7O[C@H](CO)[C@H](O)[C@H](O)[C@H]7O)[C@H](O)[C@H]6O)[C@H](O)C[C@]5(C)[C@H]4CC[C@]3(C)[C@H]2[C@@H]1C [22-O-METHYLPARVISPINOSIDE A]	30	1	38	9	50			
CC1=CC(=O)CC(C)(C)[C@@]1(O)/C=C/C(O)CO[C@@H]1O[C@H](CO)[C@@H](O)[C@H](O)[C@H]1O (stereo not given in full) [PARVISPINOSIDE C]	> 100	15			80			
Oc1ccc(/C=C/c2cc(O)cc(O)c2)cc1 [RESVERATROL]	50	17			100			
C[C@@H]1CC[C@@]2(OC1)O[C@H]1C[C@H]3[C@@H]4CC[C@H]5C[C@@H](O[C@@H]6O[C@H](CO)[C@H](O[C@@H]7O[C@H](CO)[C@@H](O)[C@H](O[C@@H]8OC[C@@H](O)[C@H](O)[C@H]8O)[C@H]7O[C@@H]7O[C@H](CO)[C@H](O)[C@H](O)[C@H]7O)[C@H](O)[C@H]6O)CC[C@]5(C)[C@H]4CC[C@]3(C)[C@H]1[C@@H]2C [GITONIN]	3	0.1	25	20	3	Active		Active
CO[C@]1(CC[C@@H](C)CO[C@@H]2O[C@H](CO)[C@@H](O)[C@H](O)[C@H]2O)O[C@H]2C[C@H]3[C@@H]4CC[C@H]5C[C@@H](O[C@@H]6O[C@H](CO)[C@H](O[C@@H]7O[C@H](CO)[C@@H](O)[C@H](O[C@@H]8OC[C@@H](O)[C@H](O)[C@H]8O)[C@H]7O[C@@H]7O[C@H](CO)[C@H](O)[C@H](O)[C@H]7O)[C@H](O)[C@H]6O)CC[C@]5(C)[C@H]4CC[C@]3(C)[C@H]2[C@@H]1C [22-O-METHYLPARVISPINOSIDE B]	30	2	50	3	40			
